Measurements from ChEMBL document CHEMBL3124937, “Design, synthesis and biological evaluation of 7-nitro-1H-indole-2-carboxylic acid derivatives as allosteric inhibitors of fructose-1,6-bisphosphatase” (Bioorg Med Chem, 2014).

Tests used:
[1] = molecular target: T1, Fructose-1,6-bisphosphatase 1 (Homo sapiens, UniProt P09467); experiment: Inhibition of human recombinant FBPase expressed in Escherichia coli BL21(DE3) by phosphoglucose isomerase and glucose-6-phosphate dehydrogenase coupled assay
T1 sequence (P09467 whole entry): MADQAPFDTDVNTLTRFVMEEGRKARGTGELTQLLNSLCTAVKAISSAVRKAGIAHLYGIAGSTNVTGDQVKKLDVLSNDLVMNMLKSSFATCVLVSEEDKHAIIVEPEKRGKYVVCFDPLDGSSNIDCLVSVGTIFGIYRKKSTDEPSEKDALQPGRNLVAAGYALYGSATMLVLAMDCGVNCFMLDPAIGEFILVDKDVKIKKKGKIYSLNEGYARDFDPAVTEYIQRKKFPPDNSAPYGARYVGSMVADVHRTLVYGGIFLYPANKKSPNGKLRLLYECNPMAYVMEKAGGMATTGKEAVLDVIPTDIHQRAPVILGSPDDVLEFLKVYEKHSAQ

[2] = molecular target: T1, Fructose-1,6-bisphosphatase 1; experiment: Inhibition of FBPase (unknown origin)

Row | IC50 [1] | IC50 [2] | Structure (SMILES)
1 | 0.99 µM | – | CCc1c(C(=O)O)[nH]c2c([N+](=O)[O-])cc(CC(C)C)cc12
2 | 4.3 µM | – | Cc1cccc(Nc2ccc([N+](=O)[O-])c3[nH]c(C(=O)O)cc23)c1
3 | 33.9 µM | – | Cc1ccc(Nc2ccc([N+](=O)[O-])c3[nH]c(C(=O)O)cc23)cc1
4 | > 50 µM | – | CC(=O)Nc1cccc(Nc2ccc([N+](=O)[O-])c3[nH]c(C(=O)O)cc23)c1
5 | > 50 µM | – | Nc1cccc(Nc2ccc([N+](=O)[O-])c3[nH]c(C(=O)O)cc23)c1
6 | > 50 µM | – | COc1cccc(N(C)c2ccc([N+](=O)[O-])c3[nH]c(C(=O)O)cc23)c1
7 | > 50 µM | – | CCCN(c1cccc(OC)c1)c1ccc([N+](=O)[O-])c2[nH]c(C(=O)O)cc12
8 | > 50 µM | – | O=C(O)c1cc2c(-c3ccccc3)ccc([N+](=O)[O-])c2[nH]1
9 | > 50 µM | – | COc1cccc(-c2ccc([N+](=O)[O-])c3[nH]c(C(=O)O)cc23)c1
10 | > 50 µM | – | O=C(O)c1cc2c(-c3cccc(Cl)c3)ccc([N+](=O)[O-])c2[nH]1
11 | > 50 µM | – | O=C(O)c1cc2c(-c3ccc(Cl)cc3)ccc([N+](=O)[O-])c2[nH]1
12 | > 50 µM | – | N#Cc1cccc(-c2ccc([N+](=O)[O-])c3[nH]c(C(=O)O)cc23)c1
13 | > 50 µM | – | N#Cc1ccc(-c2ccc([N+](=O)[O-])c3[nH]c(C(=O)O)cc23)cc1
14 | 25.9 µM | – | Cc1cccc(-c2ccc([N+](=O)[O-])c3[nH]c(C(=O)O)cc23)c1
15 | > 50 µM | – | O=C(O)c1cc2c(-c3cccc(C(F)(F)F)c3)ccc([N+](=O)[O-])c2[nH]1
16 | > 50 µM | – | O=C(O)c1cc2c(-c3ccc(C(F)(F)F)cc3)ccc([N+](=O)[O-])c2[nH]1
17 | 18.5 µM | – | CC(=O)Nc1cccc(-c2ccc([N+](=O)[O-])c3[nH]c(C(=O)O)cc23)c1
18 | > 50 µM | – | Nc1cccc(-c2ccc([N+](=O)[O-])c3[nH]c(C(=O)O)cc23)c1
19 | 9.7 µM | – | CC(C)Cc1ccc([N+](=O)[O-])c2[nH]c(C(=O)O)cc12
20 | 5.4 µM | – | CC(C)Cc1cc([N+](=O)[O-])c2[nH]c(C(=O)O)cc2c1
21 | 3.7 µM | – | CC(=O)Nc1cccc(-c2cc([N+](=O)[O-])c3[nH]c(C(=O)O)cc3c2)c1

Row | IC50 [1] | IC50 [2] | Structure (SMILES)
22 | 4.06 µM | – | COc1cccc(Nc2cc([N+](=O)[O-])c3[nH]c(C(=O)O)cc3c2)c1
23 | 6.2 µM | – | CCc1c(C(=O)O)[nH]c2c([N+](=O)[O-])cccc12
24 | 10.3 µM | – | CC(C)Cc1c(C(=O)O)[nH]c2c([N+](=O)[O-])cccc12
25 | 12.7 µM | – | O=C(O)c1[nH]c2c([N+](=O)[O-])cccc2c1-c1ccccc1
26 | 35.6 µM | – | COc1cccc(-c2c(C(=O)O)[nH]c3c([N+](=O)[O-])cccc23)c1
27 | 7.4 µM | – | CC(=O)Nc1cccc(-c2c(C(=O)O)[nH]c3c([N+](=O)[O-])cccc23)c1
28 | 4.5 µM | – | O=C(O)c1[nH]c2c([N+](=O)[O-])cccc2c1-c1cccc(F)c1
29 | > 50 µM | – | O=C(O)c1cc2c(Nc3ccccc3)ccc([N+](=O)[O-])c2[nH]1
30 | > 50 µM | – | COc1ccccc1Nc1ccc([N+](=O)[O-])c2[nH]c(C(=O)O)cc12
31 | 25.6 µM | – | COc1cccc(Nc2ccc([N+](=O)[O-])c3[nH]c(C(=O)O)cc23)c1
32 | > 50 µM | – | COc1ccc(Nc2ccc([N+](=O)[O-])c3[nH]c(C(=O)O)cc23)cc1
33 | 7.7 µM | – | COc1ccc(Nc2ccc([N+](=O)[O-])c3[nH]c(C(=O)O)cc23)cc1OC
34 | > 50 µM | – | COc1cc(Nc2ccc([N+](=O)[O-])c3[nH]c(C(=O)O)cc23)cc(OC)c1OC
35 | 29.1 µM | – | O=C(O)c1cc2c(Nc3cccc(C(F)(F)F)c3)ccc([N+](=O)[O-])c2[nH]1
36 | 12.2 µM | – | O=C(O)c1cc2c(Nc3ccc(C(F)(F)F)cc3)ccc([N+](=O)[O-])c2[nH]1
37 | > 50 µM | – | O=C(O)c1cc2c(Nc3cccc(Cl)c3)ccc([N+](=O)[O-])c2[nH]1
38 | > 50 µM | – | O=C(O)c1cc2c(Nc3ccc(Cl)cc3)ccc([N+](=O)[O-])c2[nH]1
39 | > 50 µM | – | O=C(O)c1cc2c(Nc3cccc([N+](=O)[O-])c3)ccc([N+](=O)[O-])c2[nH]1
40 | 3.4 µM | – | O=C(O)c1cc2c(Nc3ccc([N+](=O)[O-])cc3)ccc([N+](=O)[O-])c2[nH]1
41 | 2 µM | 2.5 µM | O=C(O)CCc1c(C(=O)O)[nH]c2cc(Cl)cc(Cl)c12
42 | 3.2 µM | – | Nc1ncnc2c1ncn2[C@@H]1O[C@H](COP(=O)(O)O)[C@@H](O)[C@H]1O [ADENOSINE PHOSPHATE]
